Drawing on PubChem BioAssay AID322 (DTP/NCI, 2004), this text covers T/C for 14 compounds.

Where “and” joins values, the source holds several entries; their conditions need not be identical. Identical values can stand only once. Inconclusive results and toxic doses are left out.

The test system of this assay is CD2F1 mice, P388/ADR leukemia ip, median survival T/C. In words: NCI In Vivo Anticancer Drug Screen. Data for tumor model P388 Leukemia resistant to Adriamycin; NSC 123127, Developed at Scr 08 (intraperitoneal) in CD2F1 (CDF1) mice. The note with it: endpoint: median survival time, higher = longer survival. On the procedure:
The antitumor activity of compounds was measured in mice bearing transplantable tumors. Survival or tumor size were measured and the results are expressed as the measurement made in the treated group (T) divided by the measurement made in the vehicle treated control group (C). The tumor model used in this assay is P388 Leukemia resistant to Adriamycin; NSC 123127, Developed at Scr 08 (intraperitoneal) in CD2F1 (CDF1) mice

[1] abbreviates: dose: 150.0 mg/kg/injection, schedule: Q01DX005 (ip), vehicle: saline.
Setting [2] is: dose: 300.0 mg/kg/injection, schedule: Q01DX005 (ip), vehicle: saline.
Setting [3] is: dose: 12.5 mg/kg/injection, schedule: Q01DX005 (ip), vehicle: saline with Tween-80.

`CO[C@@]12[C@H](COC(N)=O)C3=C(C(=O)C(C)=C(N)C3=O)N1C[C@@H]1N[C@@H]12`: the T/C runs as follows: (dose: 0.5 mg/kg/injection, schedule: Q01DX009 (ip), vehicle: saline with Tween-80) 178 % of control; (dose: 1.0 mg/kg/injection, schedule: Q01DX009 (ip), vehicle: saline with Tween-80) 198 % of control and 207 % of control; (dose: 2.0 mg/kg/injection, schedule: Q01DX009 (ip), vehicle: saline with Tween-80) 110 % of control and 117 % of control; (dose: 3.6 mg/kg/injection, schedule: Q01DX001 (ip), vehicle: saline) 151 % of control; (dose: 3.6 mg/kg/injection, schedule: Q01DX001 (ip), vehicle: water) 154 % of control; (dose: 5.4 mg/kg/injection, schedule: Q01DX001 (ip), vehicle: saline) 177 % of control. Further, the T/C is, setting by setting: (dose: 5.4 mg/kg/injection, schedule: Q01DX001 (ip), vehicle: water) 162 % of control; (dose: 12.0 mg/kg/injection, schedule: Q01DX001 (ip), vehicle: saline) 117 % of control; (dose: 12.0 mg/kg/injection, schedule: Q01DX001 (ip), vehicle: water) 112 % of control.

As for `C[C@H](N)C(=O)N[C@@H]1[C@H]2C(=C(O)C[C@@H](O)[C@@H]2O)C(=O)O[C@@H]1C`, the T/C was 100 % of control and 105 % of control under setting [1]; 100 % of control and 104 % of control under setting [2]; 98 % of control and 105 % of control (dose: 600.0 mg/kg/injection, schedule: Q01DX005 (ip), vehicle: saline); 97 % of control and 103 % of control (dose: 1200.0 mg/kg/injection, schedule: Q01DX005 (ip), vehicle: saline).

For `O=C1CN(CCN2CC(=O)N(CN3CCOCC3)C(=O)C2)CC(=O)N1CN1CCOCC1`, the T/C was 107 % of control (dose: 12.5 mg/kg/injection, schedule: Q01DX005 (ip), vehicle: water); 105 % of control (dose: 25.0 mg/kg/injection, schedule: Q01DX005 (ip), vehicle: water); 96 % of control (dose: 50.0 mg/kg/injection, schedule: Q01DX005 (ip), vehicle: water); 100 % of control (dose: 100.0 mg/kg/injection, schedule: Q01DX005 (ip), vehicle: water).

Turning to `CC(=O)N(C)c1ccc(Nc2cc(C)[nH]c3ccc4ncnc4c23)cc1`, the T/C runs as follows: (dose: 30.0 mg/kg/injection, schedule: Q01DX005 (ip), vehicle: saline) 98 % of control; (dose: 44.0 mg/kg/injection, schedule: Q01DX005 (ip), vehicle: saline) 114 % of control; (dose: 100.0 mg/kg/injection, schedule: Q01DX005 (ip), vehicle: saline) 122 % of control.

Regarding `CC1=C(C(N)=O)C(c2ccccc2)NC(=S)N1` (configuration not stated), the T/C is 99 % of control (dose: 3.12 mg/kg/injection, schedule: Q01DX005 (ip), vehicle: Klucel (hydroxypropylcellulose) (HPC)); 101 % of control (dose: 6.25 mg/kg/injection, schedule: Q01DX005 (ip), vehicle: Klucel (hydroxypropylcellulose) (HPC)); 98 % of control (dose: 12.5 mg/kg/injection, schedule: Q01DX005 (ip), vehicle: Klucel (hydroxypropylcellulose) (HPC)); 96 % of control and 107 % of control (dose: 25.0 mg/kg/injection, schedule: Q01DX005 (ip), vehicle: Klucel (hydroxypropylcellulose) (HPC)); 96 % of control (dose: 50.0 mg/kg/injection, schedule: Q01DX005 (ip), vehicle: Klucel (hydroxypropylcellulose) (HPC)).

As for `CC[C@@]1(O)C(=O)OCc2c1cc1n(c2=O)Cc2cc3ccccc3nc2-1`, the T/C is 161 % of control (dose: 1.5 mg/kg/injection, schedule: Q01DX005 (ip), vehicle: saline with Tween-80); 223 % of control (dose: 2.1 mg/kg/injection, schedule: Q01DX005 (ip), vehicle: saline with Tween-80); 200 % of control (dose: 3.0 mg/kg/injection, schedule: Q01DX005 (ip), vehicle: saline with Tween-80); 222 % of control (dose: 3.6 mg/kg/injection, schedule: Q01DX005 (ip), vehicle: saline with Tween-80); 216 % of control (dose: 6.0 mg/kg/injection, schedule: Q01DX005 (ip), vehicle: saline with Tween-80); 198 % of control and 232 % of control (dose: 6.7 mg/kg/injection, schedule: Q04DX002 (ip), vehicle: saline with Tween-80). Further, the T/C (dose: 10.0 mg/kg/injection, schedule: Q04DX002 (ip), vehicle: saline with Tween-80) was 207 % of control and 232 % of control; the T/C (dose: 15.0 mg/kg/injection, schedule: Q04DX002 (ip), vehicle: saline with Tween-80) was 215 % of control and 236 % of control.

For the compound `O=NNc1cnccn1`, the T/C (dose: 11.0 mg/kg/injection, schedule: Q01DX009 (ip), vehicle: water) is 165 % of control and 171 % of control; the T/C (dose: 17.0 mg/kg/injection, schedule: Q01DX009 (ip), vehicle: water) is 201 % of control and 206 % of control; the T/C (dose: 25.0 mg/kg/injection, schedule: Q01DX009 (ip), vehicle: water) is 240 % of control and 246 % of control; the T/C (dose: 37.5 mg/kg/injection, schedule: Q01DX009 (ip), vehicle: water) is 277 % of control and 313 % of control; the T/C (dose: 56.0 mg/kg/injection, schedule: Q01DX009 (ip), vehicle: water) is 107 % of control and 117 % of control.

Take `CO[C@@]12[C@@H]3N[C@@H]3CN1C1=C(C(=O)C(N3CCCC3)=C(C)C1=O)[C@@H]2COC(N)=O`: the T/C by setting is: (dose: 3.75 mg/kg/injection, schedule: Q01DX005 (ip), vehicle: saline with Tween-80) 122 % of control; (dose: 10.4 mg/kg/injection, schedule: Q01DX005 (ip), vehicle: saline with Tween-80) 122 % of control; under setting [3], 117 % of control and 120 % of control; (dose: 17.4 mg/kg/injection, schedule: Q01DX005 (ip), vehicle: saline with Tween-80) 113 % of control.

With `COC(=O)C[C@](O)(CCCC(C)(C)O)C(=O)O[C@@H]1C(OC)=C[C@]23CCCN2CCc2cc4c(cc2[C@H]13)OCO4`, the T/C by setting is: (dose: 0.87 mg/kg/injection, schedule: Q01DX009 (ip), vehicle: acid diluted with saline) 104 % of control and 109 % of control; (dose: 1.3 mg/kg/injection, schedule: Q01DX009 (ip), vehicle: acid diluted with saline) 99 % of control.

Regarding `N[C@@H](Cc1c[nH]c2ccccc12)C(=O)Nc1nncs1`, the T/C by setting is: (dose: 18.75 mg/kg/injection, schedule: Q01DX005 (ip), vehicle: saline) 99 % of control; (dose: 37.5 mg/kg/injection, schedule: Q01DX005 (ip), vehicle: saline) 96 % of control; (dose: 75.0 mg/kg/injection, schedule: Q01DX005 (ip), vehicle: saline) 90 % of control; under setting [1], 92 % of control; under setting [2], 96 % of control.

As to `NC(N)=NS(=O)(=O)c1ccc(NCc2c3ccccc3nc3ccccc23)cc1`, the T/C runs as follows: (dose: 50.0 mg/kg/injection, schedule: Q04DX003 (ip), vehicle: Klucel (hydroxypropylcellulose) (HPC)) 101 % of control; (dose: 100.0 mg/kg/injection, schedule: Q04DX003 (ip), vehicle: Klucel (hydroxypropylcellulose) (HPC)) 97 % of control; (dose: 200.0 mg/kg/injection, schedule: Q04DX003 (ip), vehicle: Klucel (hydroxypropylcellulose) (HPC)) 100 % of control; (dose: 400.0 mg/kg/injection, schedule: Q04DX003 (ip), vehicle: Klucel (hydroxypropylcellulose) (HPC)) 87 % of control.

Take `CC[C@@]1(O)CC(OC2CC(N3CCOCC3)C(O)C(C)O2)c2c(O)c3c(c(O)c2[C@H]1O)C(=O)c1cccc(O)c1C3=O` (some centres not stated): the T/C (dose: 3.0 mg/kg/injection, schedule: Q04DX003 (iv), vehicle: saline) was 160 % of control.

For the compound `COc1ccc2[nH]c3ccc4cc[n+](CCN5CCC(C6CCN(CC[n+]7ccc8ccc9[nH]c%10ccc(OC)cc%10c9c8c7)CC6)CC5)cc4c3c2c1`, the T/C (dose: 2.0 mg/kg/injection, schedule: Q01DX005 (ip), vehicle: water) was 119 % of control; the T/C (dose: 4.0 mg/kg/injection, schedule: Q01DX005 (ip), vehicle: water) was 123 % of control; the T/C (dose: 8.0 mg/kg/injection, schedule: Q01DX005 (ip), vehicle: water) is 152 % of control; the T/C (dose: 16.0 mg/kg/injection, schedule: Q01DX005 (ip), vehicle: water) is 158 % of control; the T/C (dose: 32.0 mg/kg/injection, schedule: Q01DX005 (ip), vehicle: water) was 163 % of control.

`O=C1C=CC2OC(c3ccccc3)C(O)C2O1` (configuration not stated): the T/C is 101 % of control (dose: 6.25 mg/kg/injection, schedule: Q01DX005 (ip), vehicle: saline with Tween-80); 114 % of control under setting [3]; 119 % of control (dose: 50.0 mg/kg/injection, schedule: Q01DX005 (ip), vehicle: saline with Tween-80).
